Article PMC9116245, “New 1,2,3-triazole linked ciprofloxacin-chalcones induce DNA damage by inhibiting human topoisomerase I& II and tubulin polymerization” (Journal of Enzyme Inhibition and Medicinal Chemistry, 2022)
Where two headings read alike, the source gives them in different places.

Legend:
[1] = parameters: method as in PMID 33248713, PMID 24090914; conditions: Figure 1; cited from earlier work
MCF-7 cancer cell lines = tested on: MCF-7 cancer cell lines; parameters: method as in earlier work; conditions: cited from earlier work
tubulin polymerisation = assay: Tubulin immunofluorescence microscopy in HCT116 cells; assay type: cell-based, human; conditions: HCT116, IC50 of compound, 36 h
Description: (§1) The process of tubulin polymerisation in the cells is important for the completion of mitosis and is targeted for cancer treatment. It has been reported that the suppression of tubulin polymerisation will arrest the cells at the G2/M and it eventually leads to cell death. To test the tubulin-disruptive effect of the CP hybrids, HCT116 cells were analysed by immunocytochemistry. HCT116 cells were incubated for 36 h with IC50 of the CP hybrids (4a, 4b, 4e, 4i, and 4j), nocodazole (a well-known tubulin polymerisation inhibitor, as a positive control), DMSO or Paclitaxel (a well-known tubulin polymerisation inducer, as a negative control), and tubulin was visualised by immunofluorescence microscopy. An antibody for α-tubulin was used. […] Moreover, a Western blot was performed to verify the tubulin polymerisation inhibition ability of the synthesised compounds (Figure 8(B)). The level of polymerised tubulin was decreased in HCT116 cells treated with IC50 values of CP hybrids 4a, 4b, 4e, 4i, 4j, or nocodazole.
HCT116 cells were cultured and treated with the IC50 of the potent compounds (4a, 4b, 4e, 4i, and 4j) or DMSO (control), fixed, permeabilized, and they were incubated with either γH2AX or α-tubulin antibody as the reported procedure in the literature. Confocal images were captured using a Confocal Microscope with a 63X objective. All images were processed using ImageJ software. See Supplementary Appendix A.

polymerised tubulin = assay: Western blot of polymerised tubulin in HCT116 cells; assay type: cell-based, human; conditions: HCT116, IC50 values of compounds
Description: as §1
Western blotting analysis for HCT116 cells was performed according to the reported procedure in the literature[77–79] to determine the effects of CP hybrids; 4a, 4b, 4e, 4i, and 4j on the expression of polymerised tubulin, γH2AX, p-ATR, p-CHK1, and p-Cdc25C by using the appropriate antibody. See Supplementary Appendix A.

[2] = tested on: non small lung cancer A459; parameters: method as in PMID 27555286; conditions: non small lung cancer A459, printed in Figure 1; cited from earlier work
[3] = tested on: normal lung fibroblast WI-38; parameters: method as in PMID 27555286; conditions: normal lung fibroblast WI-38, printed in Figure 1; cited from earlier work
leukemia SR = tested on: leukemia SR; parameters: method as in PMID 33248713, PMID 24090914; conditions: Figure 1; cited from earlier work
Caco-2 = assay: MTT assay; assay type: cell-based; conditions: Homo sapiens; Caco-2, MTT assay, 24 h incubation
Description: (§2) The proliferation of colorectal cancer cells (HCT116, HT29 and Caco-2) was assessed using MTT assay as previously reported. Cells were treated with increasing concentrations of 1, 5, 10, 20, 40, 80 or 100 µM of CP hybrids 4a-j, doxorubicin, or DMSO. See Supplementary Appendix A.

HCT116 = assay: MTT assay; assay type: cell-based; conditions: Homo sapiens, HCT-116, 24 h incubation
Description: as §2

HT-29 = assay: MTT assay; assay type: cell-based; conditions: Homo sapiens; HT-29, MTT assay, 24 h incubation
Description: as §2

[4] = tested on: Human Embryonic Kidney (HEK) 293 cells; assay: Cytotoxicity assay with non-cancerous cells (MTS); assay type: cell-based; conditions: Homo sapiens; HEK293, 72 h incubation
Description: To evaluate the selectivity and safety profile of the synthesised CP hybrids, a cytotoxicity experiment of compounds 4a, 4b, 4e, 4i, and 4j was performed using normal Human Embryonic Kidney (HEK) 293 cells.
To evaluate the selectivity and safety profile of the synthesised ciprofloxacin-chalcone hybrids, a cytotoxicity experiment was performed using a non-cancerous cell line. Briefly, Human Embryonic Kidney (HEK) 293 cells (ATCC, Manassas, VA, USA) were cultured in a Dulbecco’s Modified Eagle Medium (DEMEM) supplemented with 1 mM sodium pyruvate, 10 mM HEPES buffer solution, 2 mM GlutaMAX (Gibco, Grand Island, NY, USA), 50 µg/mL gentamycin sulphate (Dubuque, IA, USA), and 10% foetal bovine serum (ThermoFisher Scientific, USA). Cells were seeded in 96-well plates and incubated overnight in a humidified atmosphere with 5% CO2 at 37 °C. After 24 h, cells were treated with different concentrations (0.01–100 µM) of ciprofloxacin-chalcone hybrids. Also, DMSO and doxorubicin were used as negative and positive controls, respectively. After 72 h, old medium containing treatments were removed, and fresh medium and MTS reagents (CellTiter 96® AQueous One Solution Cell Proliferation Assay, Promega, Madison, WI, USA) were added. […] After 2 h, the absorbance was measured at 490 nm using a Spectra Max plus 384 Microplate reader (Molecular Devices, Sunnyvale, CA, USA) [74]. […]

## O=C(CN1CCN(c2cc3c(cc2F)c(=O)c(C(=O)O)cn3C2CC2)CC1)Nc1ccc(C(=O)/C=C/c2ccccc2)cc1 [I]
[1]
  GI50: 430 to 39600 nM

## CCOc1cc(/C=C/C(=O)c2cccc(O)c2)ccc1OCc1cn(-c2cc(Cl)ccc2O)nn1 [X]
MCF-7 cancer cell lines; MCF-7, 24 h
  IC50: 1270 nM
MCF-7 cancer cell lines; MCF-7, 48 h
  IC50: 20 nM

## COC(=O)Nc1nc2ccc(C(=O)c3cccs3)cc2[nH]1 [nocodazole, reference compound]
Tubulin polymerisation
  tubulin polymerisation, morphological changes by immunofluorescence: significant tubulin polymerisation inhibition
Polymerised tubulin
  level of polymerised tubulin, Western blot: decreased

## O=C(CN1CCN(c2cc3c(cc2F)c(=O)c(C(=O)O)cn3C2CC2)CC1)Nc1ccc(Cl)cc1 [III]
[2]
  IC50: 14800 nM
[3]
  IC50: > 100000 nM

## CC[C@@]1(O)C(=O)OCc2c1cc1n(c2=O)Cc2cc3ccccc3nc2-1 [Camptothecin]
Leukemia SR
  IC50: 3320 nM

## COc1cc(/C=C/C(=O)c2ccc(NC(=O)N3CCN(c4cc5c(cc4F)c(=O)c(C(=O)O)cn5C4CC4)CC3)cc2)cc(OC)c1OC [II]
Leukemia SR
  IC50: 640 nM

## COc1cccc2c1C(=O)c1c(O)c3c(c(O)c1C2=O)C[C@@](O)(C(=O)CO)C[C@@H]3O[C@H]1C[C@H](N)[C@H](O)[C@H](C)O1 [Doxorubicin, reference compound]
Caco-2
  IC50: 4150 ± 1080 nM
HCT116
  IC50: 1220 ± 270 nM
HT-29
  IC50: 880 ± 580 nM
[4]
  IC50: 47.5 nM
